Experiments:
[1] = system: NDUFS4 homozygous knockout mice (Ndufs4−/−mice); test: Electron microscopic observation of liver tissue (fatty liver) of Ndufs4−/− mice; format: in vivo; settings: oral, 0.1 kg/day per mg of mouse weight, 24 days, vs Control 1 group (water)
Excerpt: Compound #5 was orally administered to NDUFS4 homozygous knockout mice (Ndufs4−/−mice) (4 weeks old) at a dose of 0.1 kg/day per mg of mouse weight for 24 days ([Compound #5 administration group]).
In addition, water was orally administered to NDUFS4 homozygous knockout mice (Ndufs4−/−mice) for 24 days ([DMSO group; Control 1 group]). Further, water was orally administered to wild-type mice for 24 days ([Control 2 group]).

[2] = system: Mouse inner ear cells HEI-OC1; test: RNA-Seq and ChIP-Atlas analysis of HEI-OC1 cells; format: cell-based; settings: 10 µM
Protocol: Mouse inner ear cells HEI-OC1 were cultured in 10% FBS-containing DMEM medium containing 10 µM of Compound #5 (dissolved in 0.1% DMSO) ([MA5 addition group], n=5).
In addition, mouse inner ear cells HEI-OC1 were cultured in 10% FBS-containing DMEM medium containing […] 0.1% DMSO ([Vehicle group], n=5).
RNA sequencing (RNA-Seq) analysis was performed on the HEI-OC1 cells in [MA5 addition group] and [Vehicle group] to identify genes whose expression levels changed (increased or decreased) in [MA5 addition group] as compared with [Vehicle group]. Using the results of these gene names, integrated analysis with ChIP-Atlas was performed to investigate transcription factors possibly related to these genes. The results of ChIP enrichment analysis (ChEA) are shown in Table 7, and the results of analysis by ENCODE and ChEA consensus TFs from ChIP-X are shown in Table 8.

[3] = system: cochlear cells of the inner ear of wild-type mice; test: RNA-Seq and ChIP-Atlas analysis of cochlear cells of wild-type mice; format: in vivo, mouse; settings: wild-type C57BL6 mice, oral, 50 mg/kg/day, 2 weeks, Table 6
Protocol: Water-suspended Compound #5 was orally administered to C57BL6 mice (6 weeks old) at a dose of 50 mg/kg/day per kg of mouse weight for 2 weeks ([MA5 addition group], n=5).
In addition, water was orally administered to C57BL6 mice (6 weeks old) for […] ([Vehicle group], n=5).
RNA sequence (RNA-Seq) analysis was performed on cochlear cells of the inner ear of wild-type mice of [MA5 addition group] and [Vehicle group] described above, and genes whose expression levels changed (increased or decreased) in [MA5 addition group] as compared with [Vehicle group] were identified. Using the results of these gene names, integrated analysis with ChIP-Atlas was performed to investigate transcription factors possibly related to these genes.

[4] = Plasma metabolite analysis by CE-TOFMS in α-Klotho gene-deficient mice; format: in vivo; settings: oral, 10 mg/kg mouse weight/day, 28 to 60 days old
Protocol: Water-suspended Compound #5 was orally administered to α-Klotho gene-deficient mice (28 days old) at a dose of 10 mg/kg mouse weight/day until 60 days old (Klotho homo KO mouse administration group, n=2).
In addition, water was orally administered to wild-type mice (28 days old) and α-Klotho gene-deficient mice (28 days old) until 60 days old (n=2 for each of the wild-type non-administrated group and the Klotho homo KO mouse non-administrated group).
Plasma was prepared from each 60-day-old mouse, and the effect of administration of Compound #5 on plasma metabolites was subjected to target analysis (comprehensive analysis) by CE-TOFMS (manufactured by Human Metabolome Technologies, Inc.).

SIRTI protein = test: Amount of SIRT1 protein in RH30 cells by Western blotting; format: cell-based, human; settings: 30 μM, 24 hours, compared with Control group (DMSO)
Protocol: RH30 cells (human rhabdomyosarcoma cell line; gli gene expression+, N-myc gene expression+) at 1×10^6 cell/dish were seeded and cultured in a dish containing 10 mL of a culture solution (low-glucose-containing DMEM medium (glucose concentration of 1.0 g/dL) to which 10 wt. % of FBS was added). One day later, Compound #5 was added to have a concentration of 30 μM, and the mixture was cultured for 24 hours ([Compound #5 addition group]). Compound #9, Compound #13, Compound #21, Compound #30, or Compound #35 as the present compound was added in place of Compound #5, and the mixture was cultured in the same manner, respectively, as [Compound #9 addition group], [Compound #13 addition group], [Compound #21 addition group], [Compound #30 addition group], and […].
On the other hand, as a control, DMSO (dimethyl sulfoxide) was added to have a concentration of 0.2 wt. %, and the mixture was cultured for 24 hours ([Control group]).
After completion of culture, the cells were recovered, disrupted by a typical method, and the amount of each of the proteins (SIRTI proteins, etc.) in the cells was detected by Western blotting. Further, the results of quantification of each band in the detection results of the Western blotting in FIG. 6 through normalization with the band of β-actin as a loading control are shown in FIG. 7.

[5] = system: muscle cells of young mice; test: RNA-Seq, pathway and ChIP-Atlas analysis of muscle cells of young mice; format: in vivo, mouse; settings: oral, 50 mg/kg/day, 2 months
Protocol: Water-suspended Compound #5 was orally administered to C57BL6 mice (12 weeks old) at a dose of 50 mg/kg/day per kg of mouse weight for 2 months ([MA5 addition group], n=5). After 2 months of oral administration, the mice were 20 weeks old.
In addition, water was orally administered to C57BL6 mice (12 weeks old) for 2 months ([Vehicle group], n=5). After 2 months of oral administration, the mice were 20 weeks old.
RNA sequencing (RNA-Seq) analysis was performed on the muscle cells of the young mice in [MA5 addition group] and [Vehicle group] to identify genes whose expression levels changed (increased or decreased) in [MA5 addition group] and [Vehicle group] compared to the muscle cells of young mice before administration. The results are illustrated in FIG. 16.
Based on the names of genes whose expression levels increased or decreased in the young mice of [MA5 addition group] as compared with the young mice of [Vehicle group] in the RNA sequence (RNA-Seq) analysis, pathway analysis of genes whose expression levels varied in [MA5 addition group] was performed. The results are illustrated in FIG. 17. […]

[6] = system: α-Klotho gene-deficient mice; test: Survival rate of α-Klotho gene-deficient mice (Kaplan-Meier); format: in vivo; settings: oral, 10 mg/kg mouse weight/day from 28 days old until death
Protocol: Water-suspended Compound #5 was orally administered to α-Klotho gene-deficient mice (28 days old) as a premature aging animal model at a dose of 10 mg/kg mouse weight/day, the progress was observed until death, and the survival rate was evaluated from a survival curve based on the Kaplan-Meier method (Klotho homo KO mouse administration group, n=9).
In addition, water was orally administered to α-Klotho gene-deficient mice (28 days old) until death (Klotho homo KO mouse non-administered group, n=9).

## O=C(CC(C(=O)O)c1c[nH]c2ccccc12)c1ccc(F)cc1F (stereo not drawn) [Compound #5, 4-(2,4-difluorophenyl)-2-(1H-indole-3-yl)-4-oxo-butanoic acid]
[1]
  fat deposition in hepatocytes (fatty liver): clear reduction
[2]; Table 7
  transcription factors related to genes whose expression increased (ChIP enrichment analysis, ChEA): SUZ^12 and EZH2, which are factors constituting polycomb repressive complex-2 (PRC2), which methylates histones, and SOX2
[2]; Table 8
  transcription factors related to genes whose expression increased (ENCODE and ChEA consensus TFs from ChIP-X): PPARG (peroxisome proliferator-activated receptor γ), which is a longevity-related gene, MYC, which is one of the reprogramming factors necessary for the production of iPS cells, TRIM28
[3]
  transcription factors related to the genes whose expression increased (ChIP-Atlas): SUZ^12 and EZH2
[4]
  spermidine in plasma: increased
SIRTI protein
  amount of SIRTI protein in cells: increased
[5]
  expression levels of genes related to differentiation, development, and the like of muscles such as Tbx1 Gene: increased
[5]; Table 2
  transcription factors related to the genes whose expression increased (ChIP-Atlas): SUZ^12 and EZH2
[6]
  survival rate: significantly increased

Source: US20240307351A1, “AGENT FOR ANTI-AGING OR FOR CELLULAR REJUVENATION” (TOHOKU UNIVERSITY, priority 2022, published 2024)
